Source: paper PMC12624955, “Exploring diarylheptanoid derivatives to target LIMK1 as potential agents against colorectal cancer” (Journal of Enzyme Inhibition and Medicinal Chemistry, 2025)

Tests used:
EPHA3 = target: T1, EPHA3 (Homo sapiens, UniProt P29320); assay: SelectScreen kinase panel, LanthaScreen Eu kinase binding assay; conditions: read-out: Inhibition percentage at 1 μM
T1 construct: purchased Thermo Fisher Scientific SelectScreen
Protocol: (§1) The inhibitory activities of the compounds against kinases were tested using the SelectScreen Kinase assay from Thermo Fisher Scientific in Waltham, MA, USA. The LanthaScreen Eu kinase binding assay was used to validate the LIMK1 inhibition activity of the compounds, and was performed according to the manufacturer’s protocol (https://www.thermofisher.com/tw/zt/home/industrial/pharma-biopharma/drug-discovery-development/target-and-lead-identification-and-validation/kinasebiology/kinase-activity-assays/lanthascreentm-eu-kinase-binding-assay/lanthascreen-eu-kinase-binding-assay-validation-table.html). This endpoint assay quantifies inhibitor binding through the displacement of a fluorescently labelled ATP-competitive tracer from LIMK1. A mixture of the 100× compounds, 2× LIMK1/antibody mixture (Eu-anti-His), 4× tracer 236, and kinase buffer were mixed sequentially. After incubation at room temperature for 1 h, the mixture was analysed using a fluorescence plate reader. The kinase inhibition assay results were expressed as the average of two replicates.
(§2) Kinase panel screening was carried out using the SelectScreen Kinase Assay (Thermo Fisher Scientific, Waltham, MA, USA). Three complementary assay formats were applied: the Z′-LYTE kinase assay, LanthaScreen Eu kinase binding assay, and Adapta Universal kinase assay. The kinases selected for this study and the corresponding assay formats are summarised in Supplementary Table S1.

BRAF = target: T2, BRAF (Homo sapiens, UniProt P15056); assay: as above; conditions: read-out: Inhibition percentage at 1 μM
T2 construct: purchased Thermo Fisher Scientific SelectScreen
Protocol: as §1, §2

WEE1 = target: T3, WEE1 (Homo sapiens, UniProt P30291); assay: as above; conditions: read-out: Inhibition percentage at 1 μM
T3 construct: purchased Thermo Fisher Scientific SelectScreen
T3 sequence (P30291 whole entry): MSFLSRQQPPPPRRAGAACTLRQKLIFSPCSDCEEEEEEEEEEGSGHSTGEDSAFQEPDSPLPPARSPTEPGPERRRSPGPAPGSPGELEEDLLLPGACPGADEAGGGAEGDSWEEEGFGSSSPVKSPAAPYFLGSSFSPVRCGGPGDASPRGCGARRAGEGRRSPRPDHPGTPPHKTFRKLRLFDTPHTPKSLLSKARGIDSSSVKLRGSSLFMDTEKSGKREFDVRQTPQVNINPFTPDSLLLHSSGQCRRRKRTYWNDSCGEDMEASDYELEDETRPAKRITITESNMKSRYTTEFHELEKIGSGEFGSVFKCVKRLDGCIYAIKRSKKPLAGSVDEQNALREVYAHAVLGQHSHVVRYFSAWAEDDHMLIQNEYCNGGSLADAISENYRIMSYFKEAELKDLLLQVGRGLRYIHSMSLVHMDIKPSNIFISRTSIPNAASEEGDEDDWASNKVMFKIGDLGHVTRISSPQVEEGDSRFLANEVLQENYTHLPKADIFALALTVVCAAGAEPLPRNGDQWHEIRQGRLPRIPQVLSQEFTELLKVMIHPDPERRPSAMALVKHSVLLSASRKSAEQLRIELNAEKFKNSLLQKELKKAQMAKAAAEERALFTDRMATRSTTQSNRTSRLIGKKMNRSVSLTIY
Protocol: as §1, §2

ICK = target: T4, ICK (Homo sapiens, UniProt Q9UPZ9); assay: as above; conditions: read-out: Inhibition percentage at 1 μM
T4 construct: purchased Thermo Fisher Scientific SelectScreen
Protocol: as §1, §2

VRK2 = target: T5, VRK2 (Homo sapiens, UniProt Q86Y07); assay: as above; conditions: read-out: Inhibition percentage at 1 μM
T5 construct: purchased Thermo Fisher Scientific SelectScreen
T5 sequence (Q86Y07 whole entry): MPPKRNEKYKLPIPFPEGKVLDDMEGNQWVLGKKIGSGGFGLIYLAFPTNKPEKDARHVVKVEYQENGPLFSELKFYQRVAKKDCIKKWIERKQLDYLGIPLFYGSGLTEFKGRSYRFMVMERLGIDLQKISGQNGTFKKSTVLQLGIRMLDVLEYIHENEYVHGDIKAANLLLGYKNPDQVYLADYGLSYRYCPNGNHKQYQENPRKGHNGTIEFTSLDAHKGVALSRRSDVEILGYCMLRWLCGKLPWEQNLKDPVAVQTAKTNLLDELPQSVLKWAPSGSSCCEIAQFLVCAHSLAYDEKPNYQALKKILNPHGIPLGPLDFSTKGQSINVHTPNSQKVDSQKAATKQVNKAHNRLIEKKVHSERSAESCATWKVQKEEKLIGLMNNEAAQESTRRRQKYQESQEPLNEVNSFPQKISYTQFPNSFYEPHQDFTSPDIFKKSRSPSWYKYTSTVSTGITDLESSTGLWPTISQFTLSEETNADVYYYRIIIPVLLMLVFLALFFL
Protocol: as §1, §2

LIMK2 = target: T6, LIMK2 (Homo sapiens, UniProt P53671); assay: as above; conditions: read-out: Inhibition percentage at 1 μM
T6 construct: purchased Thermo Fisher Scientific SelectScreen
Protocol: as §1, §2

TGFBR1 (ALK5) = target: T7, TGFBR1 (ALK5) (Homo sapiens, UniProt P36897); assay: as above; conditions: read-out: Inhibition percentage at 1 μM
T7 construct: purchased Thermo Fisher Scientific SelectScreen
T7 sequence (P36897 34-503): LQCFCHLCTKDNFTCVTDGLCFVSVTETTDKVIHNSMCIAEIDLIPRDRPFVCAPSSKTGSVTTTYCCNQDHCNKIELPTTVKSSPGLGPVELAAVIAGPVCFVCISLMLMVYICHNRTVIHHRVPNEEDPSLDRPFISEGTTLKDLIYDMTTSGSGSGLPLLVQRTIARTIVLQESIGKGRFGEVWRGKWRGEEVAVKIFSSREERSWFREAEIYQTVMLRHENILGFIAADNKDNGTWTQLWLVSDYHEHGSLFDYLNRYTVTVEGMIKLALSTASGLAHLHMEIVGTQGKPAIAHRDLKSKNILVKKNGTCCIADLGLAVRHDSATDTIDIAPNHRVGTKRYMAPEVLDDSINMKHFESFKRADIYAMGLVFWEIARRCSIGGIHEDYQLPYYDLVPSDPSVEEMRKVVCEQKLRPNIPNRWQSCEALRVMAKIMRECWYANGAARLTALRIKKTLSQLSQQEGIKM
Protocol: as §1, §2

MAP2K1 (MEK1) = target: T8, MAP2K1 (MEK1) (Homo sapiens, UniProt Q02750); assay: as above; conditions: read-out: Inhibition percentage at 1 μM
T8 construct: purchased Thermo Fisher Scientific SelectScreen
T8 sequence (Q02750 whole entry): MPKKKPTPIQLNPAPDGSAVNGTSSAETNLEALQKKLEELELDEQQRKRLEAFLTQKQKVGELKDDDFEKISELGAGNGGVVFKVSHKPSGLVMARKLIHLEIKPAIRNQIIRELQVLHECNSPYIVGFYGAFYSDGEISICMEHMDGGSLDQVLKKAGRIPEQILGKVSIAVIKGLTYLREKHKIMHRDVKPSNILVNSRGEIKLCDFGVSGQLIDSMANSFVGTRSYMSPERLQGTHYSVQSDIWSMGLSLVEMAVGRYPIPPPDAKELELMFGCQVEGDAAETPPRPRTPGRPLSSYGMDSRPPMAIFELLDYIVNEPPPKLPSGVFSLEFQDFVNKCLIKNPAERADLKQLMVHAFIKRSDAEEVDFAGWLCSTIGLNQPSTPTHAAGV
Protocol: as §1, §2

LIMK1 = target: T9, LIMK1 (Homo sapiens, UniProt P53667); assay: LanthaScreen Eu kinase binding assay (SelectScreen), LIMK1 inhibition
T9 construct: purchased Thermo Fisher Scientific (SelectScreen Kinase assay service)
T9 sequence (P53667 whole entry): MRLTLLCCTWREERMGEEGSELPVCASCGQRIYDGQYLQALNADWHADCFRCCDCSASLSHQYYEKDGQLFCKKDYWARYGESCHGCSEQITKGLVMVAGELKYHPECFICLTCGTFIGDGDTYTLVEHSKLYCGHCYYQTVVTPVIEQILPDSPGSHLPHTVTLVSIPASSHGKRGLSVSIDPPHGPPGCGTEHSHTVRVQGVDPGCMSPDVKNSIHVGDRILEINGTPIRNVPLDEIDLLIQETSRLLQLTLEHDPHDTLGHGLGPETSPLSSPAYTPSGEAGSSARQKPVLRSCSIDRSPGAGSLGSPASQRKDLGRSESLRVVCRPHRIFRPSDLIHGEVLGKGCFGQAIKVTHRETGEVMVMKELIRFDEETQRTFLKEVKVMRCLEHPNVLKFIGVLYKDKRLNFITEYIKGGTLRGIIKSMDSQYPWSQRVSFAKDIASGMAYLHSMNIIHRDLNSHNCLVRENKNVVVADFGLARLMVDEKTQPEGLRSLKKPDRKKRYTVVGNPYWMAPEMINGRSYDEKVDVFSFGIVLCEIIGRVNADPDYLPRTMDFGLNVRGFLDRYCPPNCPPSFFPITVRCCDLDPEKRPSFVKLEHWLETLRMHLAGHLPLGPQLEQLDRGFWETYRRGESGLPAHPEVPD
Protocol: as §1

HT-29 [1] = assay: Sulforhodamine B assay (cell proliferation); assay type: cell-based; conditions: Homo sapiens, SRB assay, 72 h, mean ± SD
Protocol: (§3) Colorectal cell line, HCT-116, was purchased from the Bioresource Collection and Research Centre (BCRC, Hsinchu, Taiwan), while HT-29 was obtained from the American Type Culture Collection (ATCC, Manassas, VA, USA). Both cell lines were maintained in McCoy’s 5 A medium (with L-glutamine and 2.2 g/L NaHCO3, M4892, Sigma) supplemented with 10% foetal bovine serum (Corning Incorporated, NY, USA) and 1% penicillin–streptomycin–amphotericin B (100 unit/ml penicillin G, 0.1 mg/ml streptomycin sulphate, 0.25 μg/ml amphotericin B, Corning Incorporated, NY, USA). All cultures were maintained in a humidified incubator at 37 °C with 5% CO2.
(§4) Cells were seeded in 96-well plates at a density of 3 × 10^3 cells/well in 100 μl of culture medium and treated with compounds at the indicated concentrations for 72 h. After treatment, cells were fixed with 10% trichloroacetic acid for 20 min and washed with H2O. The cells were then stained with 0.4% sulforhodamine B (SRB) in 1% acetic acid for 20 min, followed by two washes with 1% acetic acid. After the well-dried, the protein-bound dye was dissolved in 100 µl of 10 mM Tris base solution, and the absorbance was measured at 515 nm using an ELISA reader (Molecular Device, Sunnyvale, CA, USA).

HCT-116 [2] = assay: Sulforhodamine B assay (cell proliferation); assay type: cell-based; conditions: Homo sapiens, SRB assay, 72 h, mean ± SD
Protocol: as §3, §4

HT-29 [3] = assay: MTT assay (cell viability); assay type: cell-based; conditions: Homo sapiens, 72 h, mean ± SD
Protocol: as §3
(§5) Cells were seeded in 96-well plates at a density of 3 × 10^3 cells/well in 100 μl of culture medium and treated with compounds at the indicated concentrations (0.3, 1, 3, 10, and 30 μM) for 72 h. Following treatment, the 3-(4,5-dimethylthiazol-2-yl)-2,5-diphenyltetrazolium bromide (MTT) solution (5 mg/ml in Phosphate-buffered saline (PBS)) was added to each well to reach a final concentration of 0.5 mg/ml, and the cells were incubated at 37 °C for 1 h. The resulting formazan crystal was dissolved in 100 µl of DMSO, and the absorbance was measured at 550 nm using an ELISA reader (Molecular Device, Sunnyvale, CA, USA).

HCT-116 [4] = assay: MTT assay (cell viability); assay type: cell-based; conditions: Homo sapiens, 72 h, mean ± SD
Protocol: as §3, §5

HT-29 [5] = assay: Analysis of cell cycle by flow cytometry; assay type: cell-based; conditions: 1, 3, 10, and 30 μM for 72 h
Protocol: (§6) Cells were seeded in six-well plates at a density of 5 × 10^5 cells/well in a 2 ml culture medium and treated with compounds at the indicated concentration for 72 h. After treatment, cells were collected and fixed with 75% (v/v) ice-cold ethanol at −20 °C for 20 min. The cells were then centrifuged to remove the buffer, resuspended, and stained with 0.5 ml of propidium iodide (PI) staining buffer (80 µg/ml PI, […] RNase A, and 1% Triton X-100 in PBS). The cell cycle distribution was analysed using a BD Accuri™ Flow cytometer and software (Becton Dickinson, Mountain View, CA, USA).

HCT-116 [6] = assay: Analysis of cell cycle by flow cytometry; assay type: cell-based; conditions: HCT116; 1, 3, 10, and 30 μM for 72 h
Protocol: as §6

DAPK1 = target: T10, DAPK1 (Homo sapiens, UniProt P53355); assay: SelectScreen kinase panel, Adapta Universal kinase assay; assay type: biochemical; conditions: read-out: Inhibition percentage at 1 μM
T10 construct: purchased Thermo Fisher Scientific SelectScreen
T10 sequence (P53355 whole entry): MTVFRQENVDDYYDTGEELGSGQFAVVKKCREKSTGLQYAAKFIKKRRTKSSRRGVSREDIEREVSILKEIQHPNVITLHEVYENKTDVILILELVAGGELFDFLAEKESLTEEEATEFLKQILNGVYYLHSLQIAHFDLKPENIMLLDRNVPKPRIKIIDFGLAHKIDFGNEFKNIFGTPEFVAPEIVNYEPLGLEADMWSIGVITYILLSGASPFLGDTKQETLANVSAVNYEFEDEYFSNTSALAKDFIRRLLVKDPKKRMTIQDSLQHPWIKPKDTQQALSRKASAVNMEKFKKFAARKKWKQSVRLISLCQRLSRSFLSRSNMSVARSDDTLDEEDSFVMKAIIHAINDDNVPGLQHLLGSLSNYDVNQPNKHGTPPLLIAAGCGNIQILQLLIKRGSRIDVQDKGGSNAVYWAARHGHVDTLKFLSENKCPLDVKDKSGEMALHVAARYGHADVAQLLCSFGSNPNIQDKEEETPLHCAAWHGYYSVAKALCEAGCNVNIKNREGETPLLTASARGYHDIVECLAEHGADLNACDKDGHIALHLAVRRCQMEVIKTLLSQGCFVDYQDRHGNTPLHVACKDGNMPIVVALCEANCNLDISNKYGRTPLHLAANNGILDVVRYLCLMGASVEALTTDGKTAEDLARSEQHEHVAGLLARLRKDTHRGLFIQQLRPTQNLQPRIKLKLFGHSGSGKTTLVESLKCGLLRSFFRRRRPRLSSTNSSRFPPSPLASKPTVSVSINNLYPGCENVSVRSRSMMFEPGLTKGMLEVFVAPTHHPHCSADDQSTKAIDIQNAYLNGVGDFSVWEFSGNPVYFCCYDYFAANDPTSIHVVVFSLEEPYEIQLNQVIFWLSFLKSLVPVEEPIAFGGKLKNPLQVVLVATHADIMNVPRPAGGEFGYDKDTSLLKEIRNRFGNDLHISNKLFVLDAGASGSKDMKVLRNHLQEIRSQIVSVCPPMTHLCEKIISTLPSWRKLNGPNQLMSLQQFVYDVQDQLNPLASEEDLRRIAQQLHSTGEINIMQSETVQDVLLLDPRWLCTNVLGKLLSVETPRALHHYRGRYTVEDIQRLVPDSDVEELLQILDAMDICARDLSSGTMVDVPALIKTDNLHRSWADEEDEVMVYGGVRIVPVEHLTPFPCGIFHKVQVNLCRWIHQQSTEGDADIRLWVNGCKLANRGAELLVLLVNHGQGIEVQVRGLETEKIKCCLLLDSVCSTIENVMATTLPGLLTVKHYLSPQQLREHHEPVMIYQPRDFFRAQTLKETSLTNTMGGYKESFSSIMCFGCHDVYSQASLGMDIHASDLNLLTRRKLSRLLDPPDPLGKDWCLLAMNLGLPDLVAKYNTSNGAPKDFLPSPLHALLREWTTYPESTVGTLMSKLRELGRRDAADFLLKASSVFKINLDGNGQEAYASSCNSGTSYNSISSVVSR
Protocol: Kinase panel screening was carried out using the SelectScreen Kinase Assay (Thermo Fisher Scientific, Waltham, MA, USA). Three complementary assay formats were applied: the Z′-LYTE kinase assay, LanthaScreen Eu kinase binding assay, and Adapta Universal kinase assay. The kinases selected for this study and the corresponding assay formats are summarised in Supplementary Table S1. The Adapta Universal Kinase Assay (Thermo Fisher Scientific, Waltham, MA, USA) was used to assess kinase activity. This homogeneous, fluorescence-based immunoassay quantifies kinase activity by detecting ADP produced during the enzymatic reaction, according to the manufacturer’s instructions (https://www.thermofisher.com/tw/zt/home/industrial/pharma-biopharma/drug-discovery-development/target-and-lead-identification-and-validation/kinasebiology/kinase-activity-assays/adapta-universal-kinase-assay.html).

T1 sequence (P29320 21-983): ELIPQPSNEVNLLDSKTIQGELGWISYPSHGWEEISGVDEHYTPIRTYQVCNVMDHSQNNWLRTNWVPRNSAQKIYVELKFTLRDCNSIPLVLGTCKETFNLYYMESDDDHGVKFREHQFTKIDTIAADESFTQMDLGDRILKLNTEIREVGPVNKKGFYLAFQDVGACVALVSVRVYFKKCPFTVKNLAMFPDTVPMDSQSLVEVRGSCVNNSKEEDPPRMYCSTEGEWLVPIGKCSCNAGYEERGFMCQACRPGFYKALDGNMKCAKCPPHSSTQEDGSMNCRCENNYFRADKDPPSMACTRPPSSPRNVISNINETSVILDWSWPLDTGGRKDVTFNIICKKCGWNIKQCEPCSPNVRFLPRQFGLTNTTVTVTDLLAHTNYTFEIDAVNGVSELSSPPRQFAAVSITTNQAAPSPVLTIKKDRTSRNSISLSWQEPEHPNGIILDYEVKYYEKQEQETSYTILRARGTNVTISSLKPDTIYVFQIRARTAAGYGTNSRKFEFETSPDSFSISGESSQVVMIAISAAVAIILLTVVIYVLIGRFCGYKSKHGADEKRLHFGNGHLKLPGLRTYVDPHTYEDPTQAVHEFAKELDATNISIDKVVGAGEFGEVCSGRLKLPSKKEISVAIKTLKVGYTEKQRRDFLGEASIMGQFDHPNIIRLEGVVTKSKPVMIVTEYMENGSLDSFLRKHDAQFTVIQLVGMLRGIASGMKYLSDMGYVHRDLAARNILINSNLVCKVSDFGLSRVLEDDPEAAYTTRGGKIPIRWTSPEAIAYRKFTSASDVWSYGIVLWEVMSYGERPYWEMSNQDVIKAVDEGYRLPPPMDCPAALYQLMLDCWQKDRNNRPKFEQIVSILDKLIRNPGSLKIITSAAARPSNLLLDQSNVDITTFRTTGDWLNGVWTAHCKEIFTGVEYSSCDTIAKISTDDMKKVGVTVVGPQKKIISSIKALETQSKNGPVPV

**Q.** With `O=C(/C=C/c1ccc(O)c(O)c1)CCCCn1ccc2c(O)cccc21` [Compound 13a, (E)-1-(3,4-dihydroxyphenyl)-7-(4-hydroxy-1H-indol-1-yl)hept-1-en-3-one] as the compound, how does the inhibition at 1 µM (EPHA3) read?
**A.** The inhibition at 1 µM was 2%.

**Q.** What about the inhibition at 1 µM (BRAF) of the same compound?
**A.** Its inhibition at 1 µM is 16%.

**Q.** What about the inhibition at 1 µM (WEE1) of the same compound?
**A.** Its inhibition at 1 µM is 44%.

**Q.** And the inhibition at 1 µM (ICK)?
**A.** The inhibition at 1 µM was 32%.

**Q.** And the inhibition at 1 µM (VRK2)?
**A.** The inhibition at 1 µM was 3%.

**Q.** What about the inhibition at 1 µM (LIMK2) of the same compound?
**A.** The inhibition at 1 µM was 30%.

**Q.** What about the inhibition at 1 µM (TGFBR1 (ALK5)) of the same compound?
**A.** Its inhibition at 1 µM is 24%.

**Q.** What about the inhibition at 1 µM (MAP2K1 (MEK1)) of the same compound?
**A.** The inhibition at 1 µM was 4%.

**Q.** What about the IC50 (LIMK1) of the same compound?
**A.** Its IC50 is 0.94 µM.

**Q.** And the inhibition at 1 µM (LIMK1; 1 μM, Figure 4(B), read-out: Inhibition percentage at 1 μM)?
**A.** The inhibition at 1 µM was greater than 50%.

**Q.** And the inhibition at 10 µM (LIMK1; compound at 10 μM, average of two replicates, read-out: Inhibition percentage at 10 μM)?
**A.** Its inhibition at 10 µM is 109%.

**Q.** And the GI50 (HT-29 [1])?
**A.** The GI50 was 10.4 ± 0.6 µM.

**Q.** What about the GI50 (HCT-116 [2]) of the same compound?
**A.** Its GI50 is 14.7 ± 0.8 µM.

**Q.** What about the IC50 (HT-29 [3]) of the same compound?
**A.** Its IC50 is 28.8 ± 0.4 µM.

**Q.** And the IC50 (HCT-116 [4])?
**A.** Its IC50 is 18.2 ± 0.9 µM.

**Q.** And the “population of Sub-G1 cells” value (HT-29 [5])?
**A.** Its value is “increased in a dose-dependent manner”.

**Q.** And the G0/G1 phase population (HCT-116 [6])?
**A.** The G0/G1 phase population was “decrease in the G0/G1 phase”.

**Q.** What about the S phase population (HCT-116 [6]) of the same compound?
**A.** Its S phase population is “dose-dependent increase in the S phase”.

**Q.** What about the “population of Sub-G1 cells” value (HCT-116 [6]) of the same compound?
**A.** The value was “increased in a dose-dependent manner”.

**Q.** And the inhibition at 1 µM (DAPK1)?
**A.** Its inhibition at 1 µM is -15%.
